The results in this text go back to ChEMBL document CHEMBL1201862, “PubChem BioAssay data set” (2004).

Among the test systems are U-251; KM12; UACC-257; HT-29; K562; M14; OVCAR-3; SK-MEL-5; HCC 2998; COLO 205; HOP-62; SF-268; CAKI-1; NCI-H460; HCT-116; HOP-92; SN12C; HCT-15; A498.
Holding throughout (test): NCI-60 cell line screen, 48 h

SMILES strings stand for the structures.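 Interpolation was linear, between the two tested concentrations surrounding the appropriate level; five concentrations were tested over 48 hours in 96-well plates. Here, GI50 denotes the concentration required for 50% inhibition of growth.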 Activity calls are given as the source filed them. Cut-off read from the data, not from the text of the source: active = GI50 up to about 1.1 µM and inactive = higher.

Take `Nc1nc(CCl)nc(Nc2ccccc2)n1`: the GI50 in the assay on U-251 was 3.99 µM (inactive); in the assay with KM12 it was 15.1 µM (inactive); in the assay on UACC-257, 15.9 µM (inactive); in the assay with HT-29, 12.5 µM (inactive); in the assay with K562 it was > 10 µM (inactive); in the assay with M14, 16.9 µM (inactive). For the same compound, the GI50 was 17.2 µM (inactive) in the assay on OVCAR-3; 17.5 µM (inactive) in the assay on SK-MEL-5; 17.4 µM (inactive) in the assay with HCC 2998; 21.8 µM (inactive) in the assay on COLO 205; 16.3 µM (inactive) in the assay on HOP-62; 19.2 µM (inactive) in the assay on SF-268. Also, the GI50 is 12.4 µM (inactive) in the assay on CAKI-1, 17.3 µM (inactive) in the assay on NCI-H460, 19.5 µM (inactive) in the assay on HCT-116 and 18.2 µM (inactive) in the assay on HOP-92.

Turning to `CCOC(=O)NC(C(=O)OCC)C(F)(F)F` (centres undefined), the GI50 in the assay on U-251, with KM12, in the assay on UACC-257, with HT-29, in the assay on K562 and in the assay with M14 was > 100 µM (inactive) throughout. Besides, the GI50 was > 100 µM (inactive) with OVCAR-3; > 100 µM (inactive) with SK-MEL-5; > 100 µM (inactive) with SN12C; > 100 µM (inactive) in the assay with HCC 2998; more than 100 µM with HCT-15; > 100 µM (inactive) in the assay on COLO 205. Also, the GI50 with HOP-62 is > 100 µM (inactive); in the assay with SF-268, > 100 µM (inactive); with CAKI-1, > 100 µM (inactive); in the assay with NCI-H460, > 100 µM (inactive); with HCT-116, > 100 µM (inactive); in the assay with HOP-92 it was 71.4 µM (inactive).

For the compound `NC1=C(NC(=O)Cc2ccccc2F)C(=O)c2ccccc2C1=O`, the GI50 in the assay with U-251 was 36.5 µM (inactive); in the assay with KM12, > 100 µM (inactive); in the assay on UACC-257 it was 29.6 µM (inactive); in the assay on HT-29, 46.7 µM (inactive); in the assay on K562, > 100 µM (inactive); in the assay with M14, > 100 µM (inactive). For the same compound, the GI50 with OVCAR-3 is 8.26 µM (inactive); in the assay on SN12C, 90.6 µM (inactive); in the assay with HCC 2998, > 100 µM (inactive); in the assay with HCT-15, 24.2 µM; with COLO 205 it was > 100 µM (inactive); with HOP-62, 25.5 µM (inactive). The GI50 is 34.6 µM (inactive) in the assay on SF-268; > 100 µM (inactive) with CAKI-1; 47.2 µM (inactive) in the assay on NCI-H460; 44 µM (inactive) in the assay on HCT-116; 22.3 µM (inactive) with HOP-92.

Turning to `COc1cc(C=O)c(-c2c(C=O)ccc3c2OCO3)c(OC)c1OC`, the GI50 with U-251 was 70.1 µM (inactive); in the assay on KM12, 78.3 µM (inactive); with A498, > 100 µM (inactive); with UACC-257, > 100 µM (inactive); with HT-29, 69.2 µM (inactive); with K562 it was 37.2 µM (inactive). The GI50 in the assay with M14 was 74.1 µM (inactive); with OVCAR-3, 72.6 µM (inactive); in the assay on SK-MEL-5, > 100 µM (inactive); with SN12C it was > 100 µM (inactive); with HCC 2998, > 100 µM (inactive); with HCT-15, 80.4 µM. In addition, the GI50 is 64.9 µM (inactive) in the assay with COLO 205; > 100 µM (inactive) with HOP-62; 89.3 µM (inactive) with SF-268; 31.9 µM (inactive) in the assay on CAKI-1; > 100 µM (inactive) with NCI-H460; > 100 µM (inactive) with HCT-116.

On to `O=C(c1ccccc1)C(C(=O)c1ccccc1)C1(O)C(=O)c2ccccc2C1=O`, for which the GI50 in the assay on U-251 is 21 µM (inactive); in the assay with KM12, 51.5 µM (inactive); in the assay with A498, 47.4 µM (inactive); in the assay on UACC-257, 38.4 µM (inactive); in the assay on HT-29, 39.7 µM (inactive); with K562, 15.8 µM (inactive). Besides, the GI50 in the assay on M14 was 26.9 µM (inactive); in the assay on OVCAR-3 it was 26.6 µM (inactive); with SK-MEL-5, > 10 µM (inactive); with SN12C it was 27.8 µM (inactive); in the assay on HCC 2998 it was 39.4 µM (inactive); in the assay on HCT-15, 44.2 µM. For the same compound, the GI50 is 45.4 µM (inactive) in the assay on COLO 205; 29.4 µM (inactive) with HOP-62; 24.7 µM (inactive) in the assay on SF-268; > 10 µM (inactive) in the assay with HCT-116; 25.8 µM (inactive) with HOP-92.

Regarding `COc1ccccc1NC(=O)C1=C(C)NC(C)=C(C(=O)Nc2ccccc2OC)C1c1ccccc1[N+](=O)[O-]`, the GI50 is 14.5 µM (inactive) in the assay with U-251; 16.8 µM (inactive) in the assay on KM12; 19 µM (inactive) in the assay with UACC-257; 18.7 µM (inactive) with HT-29; 20.6 µM (inactive) in the assay on K562; 16.1 µM (inactive) in the assay on M14. In addition, the GI50 is 18.5 µM (inactive) in the assay with OVCAR-3; 24.8 µM (inactive) in the assay with SK-MEL-5; 16.6 µM (inactive) in the assay with SN12C; 18.7 µM (inactive) in the assay on HCC 2998; 14.3 µM in the assay with HCT-15; 16.9 µM (inactive) in the assay with COLO 205. Besides, the GI50 was 33.2 µM (inactive) in the assay with HOP-62; 19.8 µM (inactive) in the assay with SF-268; 16.1 µM (inactive) with NCI-H460; > 100 µM (inactive) in the assay on HCT-116; 25.6 µM (inactive) in the assay with HOP-92.

With `Nc1nc(N)c(-c2ccccc2)c(C(=O)Nc2ccccc2)n1`, the GI50 with U-251, with KM12, in the assay on A498, in the assay on UACC-257, with HT-29 and in the assay with K562 was > 100 µM (inactive) each time. Also, the GI50 in the assay on M14 was > 100 µM (inactive); in the assay on OVCAR-3, > 100 µM (inactive); in the assay on SK-MEL-5, > 100 µM (inactive); in the assay with SN12C it was > 100 µM (inactive); in the assay with HCT-15 it was more than 100 µM; in the assay with COLO 205, > 100 µM (inactive). The GI50 with SF-268, with CAKI-1, with NCI-H460, in the assay with HCT-116 and in the assay on HOP-92 was > 100 µM (inactive) in each case.

Consider `Nc1ccc(C(=O)NN2C(=O)C(Cl)C2c2cc(Br)cc(Br)c2O)cc1` (centres undefined), for which the GI50 with U-251 was 11.1 µM (inactive); in the assay on KM12, 22.8 µM (inactive); in the assay with UACC-257, 7.67 µM (inactive); with HT-29, 34.9 µM (inactive); in the assay on M14, 12.8 µM (inactive); in the assay with OVCAR-3, 2.43 µM (inactive). Moreover, the GI50 with SK-MEL-5 is 16.5 µM (inactive); with HCC 2998 it was 16.8 µM (inactive); with HCT-15, 3.78 µM; in the assay on COLO 205 it was 48.1 µM (inactive); with HOP-62 it was 12.1 µM (inactive); with SF-268, 3.98 µM (inactive). Further, the GI50 was 3.66 µM (inactive) in the assay on CAKI-1, 3.4 µM (inactive) in the assay with NCI-H460, 6.79 µM (inactive) in the assay on HCT-116 and 24.2 µM (inactive) with HOP-92.

With `CC1(CO)OC(n2cc(C(=O)NC(=O)OCc3ccccc3)c(=O)[nH]c2=O)CC1O` (centres undefined), the GI50 in the assay on U-251, in the assay with KM12, in the assay on A498, in the assay on UACC-257, in the assay on HT-29 and in the assay with K562 was > 100 µM (inactive) each time. For the same compound, the GI50 in the assay with M14 is > 100 µM (inactive); in the assay on OVCAR-3, > 100 µM (inactive); in the assay on SK-MEL-5, > 100 µM (inactive); with SN12C it was > 100 µM (inactive); with HCT-15, more than 100 µM; with COLO 205, > 100 µM (inactive). Besides, the GI50 with HOP-62, in the assay with SF-268, in the assay with CAKI-1, in the assay on NCI-H460, in the assay with HCT-116 and in the assay on HOP-92 was > 100 µM (inactive) in each case.

In the case of `COc1ccc2c3c([nH]c2c1[N+](=O)[O-])C(C)N(C(=O)/C=C/c1ccccc1)CC3` (centres undefined), the GI50 was 7.01 µM (inactive) with U-251; 4.24 µM (inactive) in the assay on KM12; 2.62 µM (inactive) with A498; 3.83 µM (inactive) with UACC-257; 3.89 µM (inactive) in the assay on HT-29; 2.88 µM (inactive) with K562. Further, the GI50 in the assay with M14 was 5.92 µM (inactive); in the assay on OVCAR-3, 4.8 µM (inactive); in the assay with SN12C, 41.2 µM (inactive); with HCC 2998, 21.5 µM (inactive); in the assay with HCT-15, 5.71 µM; in the assay with COLO 205, 3.46 µM (inactive). The GI50 in the assay on HOP-62 is 5.28 µM (inactive); in the assay on SF-268 it was 1.7 µM (inactive); in the assay with CAKI-1, 3.66 µM (inactive); in the assay with NCI-H460 it was 2.96 µM (inactive).

Take `O=c1[nH]nc(-c2ccccc2)c2[nH]c3c4ccccc4ccc3c12`: the GI50 in the assay on U-251 is 0.885 µM (active); in the assay on KM12, 0.692 µM (active); in the assay on A498, 1.51 µM (inactive); with UACC-257 it was 5.82 µM (inactive); in the assay on HT-29, 0.459 µM (active); in the assay on K562, 0.279 µM (active). Moreover, the GI50 in the assay with M14 was 2.66 µM (inactive); in the assay on OVCAR-3 it was 0.424 µM (active); in the assay with SK-MEL-5 it was 0.587 µM (active); in the assay on SN12C, 3.87 µM (inactive); with HCC 2998, 0.948 µM (active); in the assay on HCT-15, 0.643 µM. Besides, the GI50 in the assay with COLO 205 is 0.74 µM (active); with HOP-62 it was 2.77 µM (inactive); with SF-268 it was 1.33 µM (inactive); in the assay on NCI-H460, 0.56 µM (active); with HCT-116, 0.942 µM (active); with HOP-92, 20.3 µM (inactive).

With `COc1ccc(NCc2cc(OC)c(OC)c(OC)c2)cc1`, the GI50 in the assay on U-251 was 0.439 µM (active); in the assay on KM12, 0.13 µM (active); in the assay on A498 it was 0.543 µM (active); in the assay on HT-29, 0.176 µM (active); in the assay on M14, 0.457 µM (active); in the assay with OVCAR-3, 0.34 µM (active). In addition, the GI50 with SK-MEL-5 is 0.207 µM (active); in the assay with SN12C, 0.53 µM (active); with HCC 2998, 0.277 µM (active); in the assay with HCT-15, 0.217 µM; in the assay with COLO 205 it was 0.233 µM (active); in the assay on HOP-62, 0.378 µM (active). The GI50 with SF-268 is 1 µM (active); in the assay on NCI-H460 it was 0.359 µM (active); in the assay with HCT-116 it was 0.367 µM (active); with HOP-92, 2.15 µM (inactive).
